Experimental data as given in patent publication US8906925B2, “Pyrido[4,3-B]indoles containing rigid moieties” (Medivation Technologies, Inc., priority 2008, dated 2014).
Where two headings read alike, the source gives them in different places.

Columns and labels:
[1] = molecular target: human dopamine D2L receptor (Homo sapiens, UniProt P14416); test: Dopamine D2L radioligand binding ([3H]Spiperone); settings: compound at 1 μM
Text: Non-specific binding was estimated in the presence of […] Haloperidol. Receptor proteins were filtered and washed, the filters were then counted to determine [^3H]Spiperone specifically bound. […] Biochemical assay results are presented as the percent inhibition of specific binding in Table 9.

histamine receptor H1 = histamine receptor H1 (Homo sapiens, UniProt P35367); test: Histamine H1 radioligand binding ([3H]Pyrilamine); settings: read-out: Histamine Binding (1 μM) H1, percent inhibition of specific binding, 1 μM
histamine receptor H1, sequence (P35367 whole entry): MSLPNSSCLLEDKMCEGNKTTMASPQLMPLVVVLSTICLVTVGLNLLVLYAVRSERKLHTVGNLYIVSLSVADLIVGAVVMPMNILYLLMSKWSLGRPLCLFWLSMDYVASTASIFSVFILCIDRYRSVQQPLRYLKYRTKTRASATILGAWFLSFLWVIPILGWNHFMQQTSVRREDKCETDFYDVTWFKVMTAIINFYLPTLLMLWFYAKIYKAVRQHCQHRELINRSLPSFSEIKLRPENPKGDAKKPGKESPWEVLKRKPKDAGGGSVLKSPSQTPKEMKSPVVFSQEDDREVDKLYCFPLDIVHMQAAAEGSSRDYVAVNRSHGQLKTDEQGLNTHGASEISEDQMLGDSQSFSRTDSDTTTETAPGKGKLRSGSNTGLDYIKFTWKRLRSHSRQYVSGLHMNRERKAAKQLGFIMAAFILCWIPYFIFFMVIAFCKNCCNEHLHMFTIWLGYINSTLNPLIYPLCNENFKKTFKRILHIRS
Procedure, shortened: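 Values are percent inhibition of specific [3H]pyrilamine (1.2 nM) binding with compounds at ≤1 μM (1% DMSO vehicle); 180 min incubation at 25 °C, pH 7.4 Tris buffer, on CHO-expressed human H1 receptor; 1 μM pyrilamine defined nonspecific binding, bound ligand counted after filtration.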

[2] = molecular target: T1, human recombinant serotonin (5-Hydroxytryptamine) 5-HT2A receptor (Homo sapiens, UniProt P28223); test: Serotonin 5-HT2A radioligand binding ([3H]Ketanserin); settings: for inhibition at 0.1 µM: read-out: Inhibition of ligand binding, Serotonin 5-HT2A (percent inhibition of specific binding), compound at 0.1 μM; for inhibition at 1 µM: read-out: Inhibition of ligand binding, Serotonin 5-HT2A (percent inhibition of specific binding), compound at 1 μM
T1 construct: expressed in transfected cells; host or cells: Chinese hamster ovary (CHO-K1) cells
T1 sequence (P28223 whole entry): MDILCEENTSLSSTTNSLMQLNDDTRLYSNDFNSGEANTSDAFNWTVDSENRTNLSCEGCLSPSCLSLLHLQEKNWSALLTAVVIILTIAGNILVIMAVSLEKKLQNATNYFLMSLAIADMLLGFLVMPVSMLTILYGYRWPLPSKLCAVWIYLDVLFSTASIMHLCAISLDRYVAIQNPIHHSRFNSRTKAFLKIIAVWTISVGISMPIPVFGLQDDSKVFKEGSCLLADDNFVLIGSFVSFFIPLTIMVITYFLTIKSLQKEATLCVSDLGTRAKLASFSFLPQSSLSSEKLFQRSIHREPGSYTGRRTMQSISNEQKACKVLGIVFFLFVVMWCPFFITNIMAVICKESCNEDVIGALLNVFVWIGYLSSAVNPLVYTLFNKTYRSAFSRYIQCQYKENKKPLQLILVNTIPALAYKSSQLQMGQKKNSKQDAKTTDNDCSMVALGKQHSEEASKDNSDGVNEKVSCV
Description: (§1) Compounds of the invention were incubated with 0.5 nM [^3H]Ketanserin for 60 min. at 25° C. Non-specific binding was estimated in the presence of 1 μM Mianserin. Receptor proteins were filtered and washed, the filters were then counted to determine [^3H]Ketanserin specifically bound.

[3] = molecular target: T2, human recombinant serotonin (5-Hydroxytryptamine) 5-HT2C receptor (Homo sapiens, UniProt P28335); test: Serotonin 5-HT2C radioligand binding ([3H]Mesulergine)
T2 construct: expressed in transfected cells; host or cells: Chinese hamster ovary (CHO-K1) cells
T2 sequence (P28335 33-458): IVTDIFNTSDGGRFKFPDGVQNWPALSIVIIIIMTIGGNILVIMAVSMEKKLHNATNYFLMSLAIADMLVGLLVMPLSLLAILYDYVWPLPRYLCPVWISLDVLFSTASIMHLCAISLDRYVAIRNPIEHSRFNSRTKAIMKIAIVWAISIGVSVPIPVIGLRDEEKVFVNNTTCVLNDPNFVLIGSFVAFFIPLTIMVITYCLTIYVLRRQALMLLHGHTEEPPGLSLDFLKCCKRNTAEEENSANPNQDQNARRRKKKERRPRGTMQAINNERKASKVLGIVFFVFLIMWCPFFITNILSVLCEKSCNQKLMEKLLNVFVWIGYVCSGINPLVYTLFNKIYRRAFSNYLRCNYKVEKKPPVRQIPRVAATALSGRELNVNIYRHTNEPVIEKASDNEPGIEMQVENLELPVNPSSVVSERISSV
Description: as §1, with “1” for “0.5”, “[^3H]Mesulergine” for “[^3H]Ketanserin”, “bound. Compounds were screened at 1 μM or lower, using 1% DMSO as vehicle. Biochemical assay results are presented as the percent inhibition of specific binding in Table 10.” for “bound.”

[4] = molecular target: T3, human recombinant serotonin (5-Hydroxytryptamine) 5-HT6 receptor (Homo sapiens, UniProt P50406); test: Serotonin 5-HT6 radioligand binding ([3H]LSD)
T3 construct: expressed in transfected cells; host or cells: human HeLa cells
T3 sequence (P50406 whole entry): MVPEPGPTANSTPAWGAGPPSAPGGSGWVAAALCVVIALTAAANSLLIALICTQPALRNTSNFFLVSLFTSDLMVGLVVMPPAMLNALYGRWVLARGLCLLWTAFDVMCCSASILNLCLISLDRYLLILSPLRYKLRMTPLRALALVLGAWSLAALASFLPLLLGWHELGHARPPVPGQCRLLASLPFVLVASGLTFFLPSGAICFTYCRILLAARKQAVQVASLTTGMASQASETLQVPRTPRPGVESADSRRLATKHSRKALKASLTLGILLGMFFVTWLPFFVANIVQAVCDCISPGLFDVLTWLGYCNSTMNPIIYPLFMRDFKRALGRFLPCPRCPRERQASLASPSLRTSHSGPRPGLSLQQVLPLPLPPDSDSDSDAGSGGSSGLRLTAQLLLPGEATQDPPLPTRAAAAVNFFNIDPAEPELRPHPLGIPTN
Description: Compounds of the invention were incubated with 1.5 nM [3H]Lysergic acid diethylamide (LSD) for 120 min. at 37° C. […] Receptor proteins were filtered and washed, the filters were then counted to determine [3H]LSD specifically bound. Compounds were screened at 1 μM or lower, using 1% DMSO as vehicle. Biochemical assay results are presented as the percent inhibition of specific binding in Table 10.

[5] = molecular target: human recombinant serotonin (5-Hydroxytryptamine) 5-HT7 receptor (Homo sapiens, UniProt P34969); test: Serotonin 5-HT7 radioligand binding ([3H]LSD); settings: compound at 0.1 μM; for inhibition at 0.1 µM: read-out: Inhibition of ligand binding, Serotonin 5-HT7 (percent inhibition of specific binding)
human recombinant serotonin (5-Hydroxytryptamine) 5-HT7 receptor, sequence (P34969 whole entry): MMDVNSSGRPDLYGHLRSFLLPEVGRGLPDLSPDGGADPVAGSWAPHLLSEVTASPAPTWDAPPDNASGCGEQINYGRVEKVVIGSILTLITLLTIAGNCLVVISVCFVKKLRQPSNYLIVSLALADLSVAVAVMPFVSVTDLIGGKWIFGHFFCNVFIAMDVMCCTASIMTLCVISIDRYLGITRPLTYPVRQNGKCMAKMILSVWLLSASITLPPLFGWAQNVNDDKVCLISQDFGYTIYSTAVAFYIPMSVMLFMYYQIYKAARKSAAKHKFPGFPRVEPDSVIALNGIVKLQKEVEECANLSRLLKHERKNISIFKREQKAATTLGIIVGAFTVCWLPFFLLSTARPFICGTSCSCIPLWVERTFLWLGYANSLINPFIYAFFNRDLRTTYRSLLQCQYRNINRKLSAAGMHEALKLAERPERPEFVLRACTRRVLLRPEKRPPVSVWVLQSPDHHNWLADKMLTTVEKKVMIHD
Text: Receptor proteins were filtered and washed, the filters were then counted to determine [^3H]LSD specifically bound.

[6] = percent inhibition of specific binding, read-out: Inhibition of ligand binding, Dopamine D2L
[7] = compound at 0.1 μM, read-out: Inhibition of ligand binding, Serotonin 5-HT2C (percent inhibition of specific binding)
[8] = compound at 0.1 μM, read-out: Inhibition of ligand binding, Serotonin 5-HT6 (percent inhibition of specific binding)
[9] = […] [3H]Spiperone, read-out: Inhibition of ligand binding, Dopamine D2L (percent inhibition of specific binding)

human dopamine D2L receptor, sequence (P14416 whole entry): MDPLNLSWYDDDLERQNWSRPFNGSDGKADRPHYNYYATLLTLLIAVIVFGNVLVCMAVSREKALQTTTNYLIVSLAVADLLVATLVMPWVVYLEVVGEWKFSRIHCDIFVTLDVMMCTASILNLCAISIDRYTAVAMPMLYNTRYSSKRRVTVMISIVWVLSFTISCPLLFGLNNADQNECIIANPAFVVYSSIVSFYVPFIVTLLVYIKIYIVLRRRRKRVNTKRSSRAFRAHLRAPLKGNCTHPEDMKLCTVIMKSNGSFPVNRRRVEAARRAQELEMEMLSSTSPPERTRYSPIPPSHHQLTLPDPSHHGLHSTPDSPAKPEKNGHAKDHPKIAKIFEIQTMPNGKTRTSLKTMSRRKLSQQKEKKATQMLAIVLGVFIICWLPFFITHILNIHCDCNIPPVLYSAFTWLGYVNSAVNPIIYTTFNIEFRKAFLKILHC

SMILES	inhibition at 1 µM (histamine receptor H1) [%]	inhibition at 1 µM [1, 9] [%]	inhibition at 1 µM [1, 6] [%]	also measured
CC/C(=C/n1c2c(c3cc(Cl)ccc31)CN(C)CC2)c1ccncc1 [Compound 282, (Z)-8-chloro-2-methyl-5-(2-(pyridin-4-yl)but-1-enyl)-2,3,4,5-tetrahydro-1H-pyrido[4,3-b]indole]	31		57	inhibition at 0.1 µM [2]: 100%; inhibition at 0.1 µM [3, 7]: 94%; inhibition at 0.1 µM [4, 8]: 102%; inhibition at 0.1 µM [5]: 91%
C/C(=C\n1c2c(c3cc(Cl)ccc31)CN(C)CC2)c1ccc(F)cc1F [Compound 277, (E)-8-chloro-5-(2-(2,4-difluorophenyl)prop-1-enyl)-2-methyl-2,3,4,5-tetrahydro-1H-pyrido[4,3-b]indole]	95			Inhibition of ligand binding, Dopamine D2L ([1]; percent inhibition of specific binding, 1 µM): 98%; Inhibition of ligand binding, Serotonin 5-HT2A (percent inhibition of specific binding) ([2]; compound at 0.1 μM, 0.1 µM): 100%; Inhibition of ligand binding, Serotonin 5-HT2C (percent inhibition of specific binding) ([3]; compound at 0.1 μM, 0.1 µM): 98%; Inhibition of ligand binding, Serotonin 5-HT6 (percent inhibition of specific binding) ([4]; compound at 0.1 μM, 0.1 µM): 98%; Inhibition of ligand binding, Serotonin 5-HT7 (percent inhibition of specific binding) ([5]; 0.1 µM): 103%
CC(C)C(O)(Cn1c2c(c3cc(Cl)ccc31)CN(C)CC2)c1ccncc1 (centres unmarked) [Compound 193, 1-(8-chloro-2-methyl-3,4-dihydro-1H-pyrido[4,3-b]indol-5(2H)-yl)-3-methyl-2-(pyridin-4-yl)butan-2-ol]	-7		14	inhibition at 0.1 µM [2]: 69%; inhibition at 0.1 µM [3, 7]: 44%; inhibition at 0.1 µM [4, 8]: 3%; inhibition at 0.1 µM [5]: 40%
CCC(O)(Cn1c2c(c3cc(Cl)ccc31)CN(C)CC2)c1ccncc1 (centres unmarked) [Compound 195, 1-(8-chloro-2-methyl-3,4-dihydro-1H-pyrido[4,3-b]indol-5(2H)-yl)-2-(pyridin-4-yl)butan-2-ol]	20		17	inhibition at 0.1 µM [2]: 62%; inhibition at 0.1 µM [3, 7]: 43%; inhibition at 0.1 µM [4, 8]: 32%; inhibition at 0.1 µM [5]: 18%
C/C(=C\n1c2c(c3cc(Cl)c(Cl)cc31)CN(C)CC2)c1ccc(F)cc1 [Compound 248, (E)-7,8-dichloro-5-(2-(4-fluorophenyl)prop-1-enyl)-2-methyl-2,3,4,5-tetrahydro-1H-pyrido[4,3-b]indole]	90		95	inhibition at 0.1 µM [2]: 108%; inhibition at 0.1 µM [3, 7]: 92%; inhibition at 0.1 µM [4, 8]: 101%; inhibition at 0.1 µM [5]: 57%
C/C(=C\n1c2c(c3cc(C(C)C)ccc31)CN(C)CC2)c1ccncc1 [Compound 267, (E)-8-isopropyl-2-methyl-5-(2-(pyridin-4-yl)prop-1-enyl)-2,3,4,5-tetrahydro-1H-pyrido[4,3-b]indole]	6		85	inhibition at 0.1 µM [2]: 66%; inhibition at 0.1 µM [3, 7]: 54%; inhibition at 0.1 µM [4, 8]: 87%; inhibition at 0.1 µM [5]: 85%
CN1CCc2c(c3cccc(Cl)c3n2C[C@](C)(O)c2ccncc2)C1 [Compound No. 470, (R)-1-(6-chloro-2-methyl-3,4-dihydro-1H-pyrido[4,3-b]indol-5(2H)-yl)-2-(pyridin-4-yl)propan-2-ol]	17	1		inhibition at 1 µM [2]: 89%
CN1CCc2c(c3cccc(Cl)c3n2C[C@@](C)(O)c2ccncc2)C1 [Compound No. 469, (S)-1-(6-chloro-2-methyl-3,4-dihydro-1H-pyrido[4,3-b]indol-5(2H)-yl)-2-(pyridin-4-yl)propan-2-ol]	14	12		inhibition at 1 µM [2]: 87%
C/C(=C\n1c2c(c3cc(C)ccc31)CNCC2)c1cc[n+](C)cc1 [Compound No. 471, (E)-1-methyl-4-(1-(8-methyl-3,4-dihydro-1H-pyrido[4,3-b]indol-5(2H)-yl)prop-1-en-2-yl)pyridinium]	2	2		
C/C(=C\n1c2c(c3cc(C)ccc31)CNCC2)c1ccncc1 [compound 401, (E)-8-methyl-5-(2-(pyridin-4-yl)prop-1-enyl)-2,3,4,5-tetrahydro-1H-pyrido[4,3-b]indole]	8	57		

More lines, main results first:

inhibition at 1 µM (histamine receptor H1) [%]	inhibition at 1 µM [1, 9] [%]	SMILES	inhibition at 1 µM [1, 6] [%]	also measured
37	92	C/C(=C\n1c2c(c3cc(Cl)ccc31)CN(CCC(C)(C)O)CC2)c1ccncc1 [compound 404, (E)-4-(8-chloro-5-(2-(pyridin-4-yl)prop-1-enyl)-3,4-dihydro-1H-pyrido[4,3-b]indol-2(5H)-yl)-2-methylbutan-2-ol]		inhibition at 1 µM ([3]; compound at 1 μM, read-out: Inhibition of ligand binding, Serotonin 5-HT2C (percent inhibition of specific binding)): 90%; inhibition at 1 µM ([4]; compound at 1 μM, read-out: Inhibition of ligand binding, Serotonin 5-HT6 (percent inhibition of specific binding)): 95%
92	17	Cc1ccc2c(c1)c1c(n2/C=C(\F)c2cscn2)CCN(C)C1 [compound 438, (Z)-4-(2-(2,8-dimethyl-3,4-dihydro-1H-pyrido[4,3-b]indol-5(2H)-yl)-1-fluorovinyl)thiazole]		
22		COc1cccc2c3c(n(CC(C)(O)c4ccncc4)c12)CCN(C)C3 (centres unmarked) [Compound 343, 1-(6-methoxy-2-methyl-3,4-dihydro-1H-pyrido[4,3-b]indol-5(2H)-yl)-2-(pyridin-4-yl)propan-2-ol]	9	
10	54	CN1CCc2c(c3cc(Cl)ccc3n2CC(O)(c2ccccc2)c2ccccc2)C1 [Compound No. 466, 2-(8-chloro-2-methyl-3,4-dihydro-1H-pyrido[4,3-b]indol-5(2H)-yl)-1,1-diphenylethanol]		
-14	21	Cc1ccc2c(c1)c1c(n2CC(O)(c2ccccc2)c2ccccc2)CCN(C)C1 [Compound No. 465, 2-(2,8-dimethyl-3,4-dihydro-1H-pyrido[4,3-b]indol-5(2H)-yl)-1,1-diphenylethanol]		
0	55	C/C(=C\n1c2c(c3cc(C)ccc31)CN(C=O)CC2)c1ccncc1 [compound 411, (E)-8-methyl-5-(2-(pyridin-4-yl)prop-1-enyl)-3,4-dihydro-1H-pyrido[4,3-b]indole-2(5H)-carbaldehyde]		
52	20	Cc1ccc2c(c1)c1c(n2/C(=C(/F)c2ccc(C)nc2)c2ccc(C)nc2)CCN(C)C1 [compound 419]		
27	94	C/C(=C\n1c2c(c3cc(C)ccc31)CN(CCc1ccccc1)CC2)c1ccncc1 [compound 412, (E)-8-methyl-2-phenethyl-5-(2-(pyridin-4-yl)prop-1-enyl)-2,3,4,5-tetrahydro-1H-pyrido[4,3-b]indole]		
22	94	COCCCN1CCc2c(c3cc(C)ccc3n2/C=C(\C)c2ccncc2)C1 [compound 400, (E)-2-(3-methoxypropyl)-8-methyl-5-(2-(pyridin-4-yl)prop-1-enyl)-2,3,4,5-tetrahydro-1H-pyrido[4,3-b]indole]		
29	77	C/C(=C\n1c2c(c3cc(N(C)C)ccc31)CN(C)CC2)c1ccc(F)cc1 [compound 442, (E)-5-(2-(4-fluorophenyl)prop-1-enyl)-N,N,2-trimethyl-2,3,4,5-tetrahydro-1H-pyrido[4,3-b]indol-8-amine]		
